According to patent US20060173171A1, “Techniques and compositions for diagnosis and treatment of cancer (muci)” (priority 2003, published 2006):

System: ligands in breast tumor cell lysates
Experiment: Ligand fishing from cell lysates with PSMGFR peptide on NTA-Ni beads, silver-stained gel
Format: binding, human
Experimental: In an effort to identify ligands to the MUC1 receptor, synthetic, His-var-PSMGFR peptides, […] (SEQ ID NO: 2), which is representative of the portion of the MUC1 receptor, that remains attached to the cell surface after cleavage of the interchain binding region, were loaded onto NTA-Ni beads (cat. #1000630; available from Qiagen GmbH, Germany) and incubated with cell lysates in the presence (FIG. 9) or absence (FIG. 10) of the protease inhibitor PMSF (phenyl methyl sulfonyl fluoride). Lysates from T47D cells were used because this breast tumor cell line is known to overexpress MUC1 and MUC1 ligand(s). T47D cells were cultured then sonicated for 1 minute to lyse the cells. Lysates were mixed with the PSMGFR peptide-presenting beads and incubated on ice with intermittent mixing for 1 hr. As a negative control, an irrelevant peptide, HHHHHHGEFTGTYITAVT (SEQ ID NO: 13), was attached to NTA-Ni beads and treated identically. Both sets of beads were washed 2× with phosphate buffer pH 7.4. Bound protein species were eluted by 3 additions of 100 uL of phosphate buffer that also contained 250 mM imidazole. For both the peptides, a portion of the first elution was removed and reserved to run as a separate sample, while the remainder was combined with the other 2 elutions and concentrated by TCA (tri-chloro acetic acid)-precipitation (Chen, L. et al., Anal. Biochem. Vol 269; pgs 179-188; 1999). […]

With “GTINVHDVETQFNQYKTEAASPYNLTISDVSVSDVPFPFSAQSGAHHHHHH [PSMGFR peptide]” the “protein species bound from T47D lysate” value (in the absence of PMSF, FIG. 10) was “bound distinguishably to one peptide” and the “protein species bound from T47D lysate” value (in the presence of PMSF, FIG. 9) was “bound distinguishably to three peptides”.
